Test system: Diabrotica virgifera virgifera and Agriotes lineatus
Experiment: Field test, lodge rate, clothianidin in-furrow, herbicides plus cyprosulfamide on soil (Example 7)
Format: in vivo
Conditions: clothianidin 50 g/ha in-furrow spray 125 L/ha, thiuram-treated seed, 165 days after application; example in present tense
Source text: A chemical fertilizer (N:P:K=15:15:15) is applied to the soil surface of a cultivated land at 300 kg/ha, and the cultivated land is then plowed. 7 days after fertilization, for suppressing generation of weeds, the soil surface of the whole cultivated land is spray-treated with a mixed liquid containing thiencarbazone-methyl and isoxaflutole, each of which being a herbicide, and cyprosulfamide which is a safener at 150 L/ha so that the application amounts of thiencarbazone-methyl, isoxaflutole and cyprosulfamide are 9.2 g/ha, 23 g/ha and 15 g/ha, respectively. 21 days after fertilization, using a pneumatic seeder (disk furrow opener) equipped with a power sprayer, a cultivated land is ditched at intervals of 75 cm to a depth of 5 cm from the soil surface, and the furrow is seeded with corn (Zea Mays; hybrid variety). […] 165 days after application of the aqueous suspension of clothianidin, the number of plants of corn lodged due to damage by Diabrotica virgifera virgifera and Agriotes lineatus in the furrows of the treatment section and the non-treatment section, for which the number of plants of corn germinated is investigated, is investigated, a lodge rate is calculated in accordance with the following equation, and then an average lodge rate for the four investigation sections is determined.

## CN/C(=N\[N+](=O)[O-])NCc1cnc(Cl)s1 [clothianidin]
  Lodge rate compared to non-treatment section: low lodge rate as compared to the non-treatment section

— patent US9265189B2, “Method for reducing damage by harmful organisms in corn cultivation” (SUMITOMO CHEMICAL COMPANY, LIMITED, priority 2012, dated 2016)
